Converted amounts (≈) assume the structure as drawn. Read-outs that look alike come from different tables or passages of the source.
How the values were obtained:
S. aureus ATCC 29213 = test: Time-to-kill (TTK) assay; format: cell-based, Staphylococcus aureus; conditions: BP 125 μg/ml and/or TBHQ […]; for CFU/ml 0.5: 0.5 hours; for CFU/ml 1.0: 1 hour
Experimental: This quantitative assay was designed to assess the time taken for a test compound to kill a test micro-organism.
Samples from an incubated liquid culture containing the relevant test compound and micro-organism were taken at timed intervals and inoculated onto agar plates. The plates were then incubated as described above and subsequently examined visually for growth. The numbers of viable microbial colonies on the plates were counted and converted to colony-forming units per ml (cfu/ml) using the appropriate dilution factor. By way of example, a colony count of 25 colonies from an agar plate carrying 100 μl of inoculum which had been serially diluted to 10^−6 would yield a viable cell count of 25×10 (to correct to 1 ml)×106 which would be equivalent to 2.5×10^8 cfu/ml. These cfu values were then converted into log10 values and plotted graphically against time of sample removal.
At each time point, samples were assessed in triplicate; the final cfu/ml value was an average (mean) of the three readings.
An appropriate concentration of test compound(s) for use in this assay was determined based on previously conducted MIC/FIC assays.
The TTK assay can provide another measure of synergy, as combinations of compounds may interact to kill test micro-organisms more quickly than the individual compounds alone. This would be indicated by a steeper decline in viable bacterial cell counts as compared to those observed for the individual compounds alone.
TTK assays were then conducted, as described above, on samples of BP, TBHQ and a BP/TBHQ mixture, using S. aureus ATCC 29213 as the test organism. The solvents used were DMSO for the BP and ethanol for the TBHQ. The results are shown in Table 3. cfu values were measured at time 0, 0.5 hours and 1 hour.

E faecalis ATCC 29212 = test: MBC assay; format: cell-based; conditions: Enterococcus faecalis, ATCC29212
From the text: 3. Enterococcus faecalis ATCC 29212—this is a Gram-positive bacterium belonging to the genus Enterococcus. Enterococci have similar properties to streptococci, but differ in their ability to grow on bile-salt containing media such as MacConkey's Agar. Their principal habitat is the mammalian gastrointestinal tract. They cause a number of important infections including endocarditis, urinary tract infections and abscesses. In the context of skin, they are frequently isolated from wound infections. Unlike the streptococci, the enterococci have developed widespread resistance to penicillin. More recently, E. faecalis and E. faecium strains have also developed resistance to the glycopeptide antibiotics such as vancomycin. Vancomycin-Resistant Enterococci (VRE), principally vanA strains of E. faecium, now represent a serious healthcare-acquired infection hazard in the USA, Japan and Western Europe.
(§1) The staphylococci and enterococci were cultured and maintained on Mueller-Hinton Medium (agar and broth) at pH 7.2; they were incubated aerobically at 37° C. for 24 hours.
(§2) This assay, normally carried out after an MIC assay, determines the minimum concentration of a compound that is lethal to the micro-organism being tested.
These samples were then individually sub-cultured on non-selective agar medium, under the incubation conditions described above. […]

[1] = test system: Staphylococcus cohnii ATCC 29974; test: MBC assay; format: cell-based; conditions: ATCC29974
Experimental: as §1, §2
(§3) These samples were then individually sub-cultured on non-selective agar medium, under the incubation conditions described above. Following incubation they were examined visually for bacterial growth.

[2] = test system: Staphylococcus haemolyticus ATCC 29970; test: MBC assay; format: cell-based; conditions: ATCC29970
Experimental: as §1, §2, §3

S. aureus ATCC 12602 = test: MBC assay; format: cell-based; conditions: Staphylococcus aureus, ATCC12602
Experimental: as §1, §2, §3

S. aureus ATCC 12607 = test: MBC assay; format: cell-based; conditions: Staphylococcus aureus, ATCC12607
Experimental: as §1, §2, §3

[3] = test system: Staphylococcus xylosus ATCC 29971; test: MBC assay; format: cell-based; conditions: ATCC29971
Experimental: as §1, §2, §3

[4] = test system: S. aureus CPHL GISA HO41340156; test: MBC assay; format: cell-based; conditions: Staphylococcus aureus
Experimental: as §1, §2, §3

S. aureus CPHL VISA Mu50 = test: MBC assay; format: cell-based; conditions: Staphylococcus aureus
Experimental: as §1, §2, §3

S. aureus ATCC 12604 = test: MBC assay; format: cell-based; conditions: Staphylococcus aureus, ATCC12604
Experimental: as §1, §2, §3

[5] = test system: Staphylococcus warneri ATCC 27836; test: MBC assay; format: cell-based; conditions: ATCC27836
Experimental: as §1, §2, §3

S. aureus ATCC 12601 = test: MBC assay; format: cell-based; conditions: Staphylococcus aureus, ATCC12601
Experimental: as §1, §2, §3

S. aureus CPHL VISA Mu3 = test: MBC assay; format: cell-based; conditions: Staphylococcus aureus
Experimental: as §1, §2, §3

S. aureus ATCC 12606 = test: MBC assay; format: cell-based; conditions: Staphylococcus aureus, ATCC12606
Experimental: as §1, §2, §3

[6] = test system: Staphylococcus capitis ATCC 27840; test: MBC assay; format: cell-based; conditions: ATCC27840
Experimental: as §1, §2, §3

[7] = test system: S. epidermidis (NCTC 11047); test: MBC assay; format: cell-based; conditions: Staphylococcus epidermidis, NCTC11047
Experimental: as §1, §2, §3

S. aureus CPHL EMRSA 17 = test: MBC assay; format: cell-based; conditions: Staphylococcus aureus
Experimental: as §1, §2, §3

[8] = test system: Staphylococcus aureus ATCC 12600; test: MBC assay; format: cell-based; conditions: ATCC12600
Experimental: as §1, §2, §3

[9] = test system: S. saprophyticus NCTC 7292; test: MBC assay; format: cell-based; conditions: Staphylococcus saprophyticus, NCTC7292
Experimental: as §1, §2, §3

S. aureus ATCC 12605 = test: MBC assay; format: cell-based; conditions: Staphylococcus aureus, ATCC12605
Experimental: as §1, §2, §3

[10] = test system: Staphylococcus hominis ATCC 27844; test: MBC assay; format: cell-based; conditions: ATCC27844
Experimental: as §1, §2, §3

[11] = test system: Staphylococcus simulans ATCC 27848; test: MBC assay; format: cell-based; conditions: ATCC27848
Experimental: as §1, §2, §3

S. aureus ATCC 12600-U = test: MBC assay; format: cell-based; conditions: Staphylococcus aureus, ATCC12600
Experimental: as §1, §2, §3

In the case of `CC(C)(C)c1cc(O)ccc1O` [TBHQ, t-butyl hydroquinone], the Time to kill (S. aureus ATCC 29213) is reported as over 1 h, the “CFU/ml 0.5” value (S. aureus ATCC 29213) is reported as 7.40 × 10^5 CFU/ml and the “CFU/ml 1.0” value (S. aureus ATCC 29213) is reported as 8.47 × 10^5 CFU/ml. For the same molecule, the “CFU/ml t = 0” value (S. aureus ATCC 29213) was 7.63 × 10^5 CFU/ml, the MBC (E faecalis ATCC 29212) was 31.2 µg/mL and the MBC [1] was 7.8 µg/mL (≈ 46.9 µM). It also gave an MBC ([2]; Staphylococcus haemolyticus) of 7.8 µg/mL (≈ 46.9 µM), an MBC (S. aureus ATCC 12602) of 7.8 µg/mL (≈ 46.9 µM) and an MBC (S. aureus ATCC 12607) of 3.9 µg/mL (≈ 23.5 µM). For the same molecule, the MBC ([3]; Staphylococcus xylosus) was 15.6 µg/mL (≈ 94 µM), the MBC [4] was 15.6 µg/mL (≈ 93.9 µM) and the MBC (S. aureus CPHL VISA Mu50; VISA) was 7.8 µg/mL (≈ 46.9 µM). The MBC (S. aureus ATCC 12604) was 7.8 µg/mL (≈ 46.9 µM), the MBC ([5]; Staphylococcus warneri) was 7.8 µg/mL (≈ 46.9 µM) and the MBC (S. aureus ATCC 12601) was 15.6 µg/mL (≈ 93.9 µM). It also gave an MBC (S. aureus CPHL VISA Mu3) of 7.8 µg/mL (≈ 46.9 µM), an MBC (S. aureus ATCC 12606) of 7.8 µg/mL (≈ 46.9 µM) and an MBC [6] of 3.9 µg/mL (≈ 23.5 µM). It also gave an MBC [7] of 7.8 µg/mL (≈ 46.9 µM), an MBC (S. aureus CPHL EMRSA 17; S. aureus CPHL EMRSA 17 (resistance Met/β-lactams), read-out: MBC) of 3.9 µg/mL (≈ 23.5 µM) and an MBC ([8]; Staphylococcus aureus) of 7.8 µg/mL (≈ 46.9 µM). The MBC [9] was 7.8 µg/mL (≈ 46.9 µM), the MBC (S. aureus ATCC 12605) was 3.9 µg/mL (≈ 23.5 µM) and the MBC [10] was 3.9 µg/mL (≈ 23.5 µM). It also gave an MBC ([11]; Staphylococcus simulans) of 31.2 µg/mL (≈ 188 µM) and an MBC (S. aureus ATCC 12600-U) of 7.8 µg/mL (≈ 46.9 µM).

For `O=C(OOC(=O)c1ccccc1)c1ccccc1` [benzoyl peroxide], the Time to kill (S. aureus ATCC 29213) was over 1 h, the “CFU/ml 0.5” value (S. aureus ATCC 29213) was 6.20 × 10^5 CFU/ml and the “CFU/ml 1.0” value (S. aureus ATCC 29213) was 3.67 × 10^4 CFU/ml. For the same molecule, the “CFU/ml t = 0” value (S. aureus ATCC 29213) was 7.63 × 10^5 CFU/ml, the MBC (E faecalis ATCC 29212; E faecalis ATCC 29212, read-out: MBC) was over 250 µg/mL and the MBC [1] was 125 µg/mL (≈ 516 µM). It also gave an MBC ([2]; Staphylococcus haemolyticus ATCC 29970, read-out: MBC) of 250 µg/mL (≈ 1030 µM), an MBC (S. aureus ATCC 12602) of 125 µg/mL (≈ 516 µM) and an MBC (S. aureus ATCC 12607) of 250 µg/mL (≈ 1030 µM). The MBC ([3]; Staphylococcus xylosus ATCC 29971, read-out: MBC) was 250 µg/mL (≈ 1030 µM), the MBC ([4]; S. aureus CPHL GISA HO41340156 (Van/Tec intermediate), read-out: MBC) was 250 µg/mL (≈ 1030 µM) and the MBC (S. aureus CPHL VISA Mu50; S. aureus CPHL VISA Mu50 (Van intermediate), read-out: MBC) was 250 µg/mL (≈ 1030 µM). It also gave an MBC (S. aureus ATCC 12604; S. aureus ATCC 12604, read-out: MBC) of 250 µg/mL (≈ 1030 µM), an MBC ([5]; Staphylococcus warneri ATCC 27836, read-out: MBC) of over 250 µg/mL and an MBC (S. aureus ATCC 12601; S. aureus ATCC 12601, read-out: MBC) of 250 µg/mL (≈ 1030 µM). The MBC (S. aureus CPHL VISA Mu3) was 125 to 250 µg/mL (≈ 516 to 1030 µM), the MBC (S. aureus ATCC 12606; S. aureus ATCC 12606, read-out: MBC) was 250 µg/mL (≈ 1030 µM) and the MBC [6] was 250 µg/mL (≈ 1030 µM). It also gave an MBC ([7]; S. epidermidis NCTC 11047, read-out: MBC) of 250 µg/mL (≈ 1030 µM), an MBC (S. aureus CPHL EMRSA 17) of 125 to 250 µg/mL (≈ 516 to 1030 µM) and an MBC ([8]; Staphylococcus aureus ATCC 12600, read-out: MBC) of 250 µg/mL (≈ 1030 µM). It also gave an MBC ([9]; S. saprophyticus NCTC 7292, read-out: MBC) of over 250 µg/mL, an MBC (S. aureus ATCC 12605) of 250 µg/mL (≈ 1030 µM) and an MBC [10] of 250 µg/mL (≈ 1030 µM). The MBC ([11]; Staphylococcus simulans ATCC 27848, read-out: MBC) was over 250 µg/mL and the MBC (S. aureus ATCC 12600-U; S. aureus ATCC 12600-U, read-out: MBC) was over 250 µg/mL.
